Measurements from article PMC3173955, “Antifungal Activities of Peptides Derived from Domain 5 of High-Molecular-Weight Kininogen” (International Journal of Peptides, 2011).
Peptide text beside a SMILES is read from it.

What was measured:
M. furfur ATCC 44342 = assay type: cell-based, Malassezia furfur; conditions: for MIC (concentration yielding at least 95% inhibition of fungal growth): ATCC 44342, 24 h
Method: Malassezia furfur ATCC 44342 (CCUG 24230) was obtained from the Department of Bacteriology at Skåne University Hospital. The antifungal activity was tested in an assay described by Lopez-[…] et al., but with some minor modifications. Cells were cultured for 2 days at 37 °C in 10 mL medium containing 4% Bacto Malt Extract (Becton, Dickinson and Company, Md, USA), 1% glucose (VWR international), 1% Tween 80 (Sigma-Aldrich, St. Louis, Mo, USA) and 0.6% Bacto Peptone (Becton, Dickinson and Company, Md, USA). Cells were then washed in 1 mM sodium phosphate buffer, pH 7.4. M. furfur cells were grown in sterile 96-well microtiter plates (Costar, Corning Incorporated, Corning, USA) in a total volume of 100 μL, containing 60 μL of 1 mM sodium phosphate buffer, pH 7.4, 20 μL of culture medium, 10 μL of a 10x stock solution of the synthetic peptides, and a 10x stock solution of the fungal cell suspension, resulting in a final concentration of 1-2 × 10^5 cells/mL. Chloramphenicol was added to each well (16 μg/ml) to avoid contamination. The cells were incubated at 30°C for 24 h. To quantify the fungicidal activity, serial dilutions of the incubation mixture were plated onto agar plates and incubated 72 h at 37°C, and the number of cfu thereafter was determined by counting visible colonies. The minimal inhibitory concentration (MIC) was defined as the concentration which yielded at least 95% inhibition of fungal growth.

[1] = system: C. parapsilosis ATCC 90018; assay type: cell-based, Candida parapsilosis
Method: C. albicans ATCC 90028 and C. parapsilosis ATCC 90018 were obtained from the Department of Bacteriology Lund at Skåne University Hospital. Cells were precultured overnight on Sabouraud-dextrose-agar (Difco, Detroit, Mich) at 28°C, inoculated in 10 mL yeast extract-peptone-dextrose (YPD) broth (Sigma-Aldrich, St. Louis, Mo USA) at 28°C, and grown to mid-logarithmic phase. The cells were washed three times and diluted in 10 mM Tris, pH 7.4. Fifty μL of a suspension containing 1 × 10^6 fungal colony-forming units (cfu)/mL was incubated at 28°C for two hours with rD5, HKH20 at concentrations ranging from 0.3 μM to 60 μM, or the peptides HKH20, GKH17, GKH17WWW, and GKH17WWWWW at a concentration of 30 μM. To quantify the fungicidal activity, serial dilutions of the incubation mixture were plated onto Sabouraud-dextrose-agar plates (Difco, Detroit, Mich) and incubated for 48 h at 28°C, and the number of cfu were thereafter determined by counting visible colonies. Activity of 30 μM HKH20, GKH17, GKH17WWW, and GKH17WWWWW peptides against Candida was also tested in physiological salt conditions (0.15 M NaCl in 10 mM Tris, pH 7.4) in presence of 20% as well as 50% human plasma, and 50% human serum (in 0.15 M NaCl, 10 mM Tris, pH 7.4) (Figure 3). […]

C. albicans ATCC 90028 = test: Radial diffusion assay (RDA), low salt; assay type: cell-based, Candida albicans; conditions: 6 μL at 100 μM; for Antifungal activity in RDA: low salt conditions (Figure 2(c))
Method: (§1) Radial diffusion assay (RDA) was performed as described by Lehrer et al. with some minor modifications. Candida was grown for 16 h at 28°C in 10 mL YPD to obtain yeast form organisms. The culture was centrifuged at 2000 ×g for 10 min then washed three times with 10 mM Tris, pH 7.4. A volume containing 1 × 10^5 cfu was added to 5 mL of previously autoclaved, 42°C, underlay agarose gel that contained 1.5 mg of Tryptic Soy Broth (TSB) base, 50 mg of low-electroendosmosistype (Low-EEO) agarose type I (A-6013-25G) (Sigma-Aldrich Inc, St. Louis, Mo, USA), and 1 μL of Tween 20 (0.02% w/v) (Sigma Chemical Co.) dissolved in 10 mM Tris, pH 7.4. The fungi were directly dispensed into the agar and mixed with a vortex mixer for 10 seconds and then quickly poured out into a petri dish, 85 mm in diameter. Wells, 4 mm in diameter, were punched, and each well was then filled up with 6 μL of test sample. After incubation at 35–37°C for 3 h, 5 mL of overlay agarose gel, consisting of 300 mg TSB, 50 mg Low-EEO agarose dissolved in distilled sterilized water, was poured out on top of the underlay gel. The clear zone surrounding the wells, indicating antifungal activity, was measured after 18–24 h of incubation at 28°C. HMWK degradation products were tested for RDA inhibitory effects (Figure 1(b)). Human leukocyte (neutrophil) elastase (HLE) and freeze-thaw-disrupted polymorphonuclear neutrophils (PMNs) at equivalent concentrations as used in the HMWK degradation were incubated at 37°C for 60 minutes and added as controls (Figure 1(b)).

[2] = system: C. parapsilosis ATCC 90018; test: Radial diffusion assay (RDA); assay type: cell-based, Candida parapsilosis; conditions: 6 μl of peptide per well (Figure 2(b))
Method: as §1, with “Human leukocyte (neutrophil) elastase (HLE) and freeze-thaw-disrupted polymorphonuclear neutrophils (PMNs) at equivalent concentrations as used in the HMWK degradation were incubated at 37°C for 60 minutes and added as controls (Figure 1(b)).” left out

[3] = Liposome leakage assay (carboxyfluorescein release); conditions: DOPC/sterol 60/40 mol/mol, 10 μM lipid in 10 mM Tris, 5 mM glucose, pH 7.4, 37°C, CF fluorescence at 520 nm, at least duplicate (Figure 4)
Description: The liposomes investigated were zwitterionic DOPC/cholesterol (60/40 mol/mol) or DOPC/ergosterol (60/40 mol/mol). DOPC (1,2-Dioleoyl-sn-Glycero-3-Phosphatidylcholine) was from Avanti Polar Lipids (Alabaster, USA) and of >99% purity, while ergosterol and cholesterol (>99% purity) were from Sigma-Aldrich (St. Louis, USA). Due to the long, symmetric, and unsaturated acyl chains of DOPC, several methodological advantages are reached. In particular, membrane cohesion is good, which facilitates very stable unilamellar liposomes, allowing detailed values on leakage to be obtained. The lipid mixtures were dissolved in chloroform, after which solvent was removed by evaporation under vacuum overnight. Subsequently, 10 mM Tris buffer, pH 7.4, was added together with 0.1 M carboxyfluorescein (CF) (Sigma, St. Louis, USA). After hydration, the lipid mixture was subjected to eight freeze-thaw cycles consisting of freezing in liquid nitrogen and heated to 60°C. Unilamellar liposomes of about Ø140 nm were generated by multiple extrusions through polycarbonate filters (pore size 100 nm) mounted in a LipoFast miniextruder (Avestin, Ottawa, Canada) at 22°C. […] CF release from the liposomes was determined by monitoring the emitted fluorescence at 520 nm from a liposome dispersion (10 μM lipid in 10 mM Tris, 5 mM glucose, pH 7.4). […]

NCCCC[C@H](NC(=O)[C@H](Cc1c[nH]c2ccccc12)NC(=O)CNC(=O)[C@H](CC(N)=O)NC(=O)[C@H](Cc1c[nH]cn1)NC(=O)[C@H](CCCCN)NC(=O)CNC(=O)[C@H](CC(N)=O)NC(=O)[C@H](CCCCN)NC(=O)[C@H](CCCCN)NC(=O)CNC(=O)[C@H](CCCCN)NC(=O)[C@H](CC(N)=O)NC(=O)[C@H](CCCCN)NC(=O)[C@H](Cc1c[nH]cn1)NC(=O)[C@H](CCCCN)NC(=O)CN)C(=O)O [GKH17] (H-GKHKNKGKKNGKHNGWK-OH)
MIC (concentration yielding at least 95% inhibition of fungal growth) (M. furfur ATCC 44342): 5 to 10 µM

NCCCC[C@H](NC(=O)CNC(=O)[C@H](CC(N)=O)NC(=O)[C@H](CCCCN)NC(=O)[C@H](CCCCN)NC(=O)CNC(=O)[C@H](CCCCN)NC(=O)[C@H](CC(N)=O)NC(=O)[C@H](CCCCN)NC(=O)[C@H](Cc1c[nH]cn1)NC(=O)[C@H](CCCCN)NC(=O)CNC(=O)[C@H](Cc1c[nH]cn1)NC(=O)CNC(=O)[C@H](Cc1c[nH]cn1)NC(=O)CNC(=O)[C@H](Cc1c[nH]cn1)NC(=O)[C@H](CCCCN)NC(=O)[C@@H](N)Cc1c[nH]cn1)C(=O)N[C@@H](Cc1c[nH]cn1)C(=O)O [HKH20] (H-HKHGHGHGKHKNKGKKNGKH-OH; N-terminus and C-terminus assumed)
Antifungal activity against M. furfur at fixed concentrations (M. furfur ATCC 44342; 10 μM or 30 μM, 24 h (Figure 2(e))): antifungal at 10 and 30 μM
MIC (concentration yielding at least 95% inhibition of fungal growth) (M. furfur ATCC 44342): 2.5 to 5 µM
Antifungal activity in viable count assay ([1]; 0.3 μM to 60 μM, 1 × 10^6 cfu/mL, 2 h at 28°C, 10 mM Tris pH 7.4 (Figure 2(a))): potent antifungal activity
Candida cells killed (time-dependent killing) ([1]; ATCC 90018, 48 h, 30 μM, pH 7.4): > 80%
Antifungal activity in RDA (C. albicans ATCC 90028): showed antifungal activity
Inhibitory activity in RDA in comparison to LL-37 (C. albicans ATCC 90028; low salt, P < 0.05 (Figure 2(c))): significantly more potent inhibitory activity on Candida, in comparison to LL-37
Inhibitory activity in RDA compared with reference peptides [2]: significantly higher inhibitory activity on Candida, when compared with LL-37

GGHVLDHGHKHKHGHGHGKH [GGH20]
Antifungal activity in RDA (C. albicans ATCC 90028): showed antifungal activity

GKHKNKGKKNGKHNGWKWWW [GKH17WWW, GKH17 hydrophobically end-tagged with three W residues at the C-terminal]
Membrane-disruptive potency, ergosterol- versus cholesterol-containing liposomes [3]: higher for ergosterol-containing liposomes than for cholesterol-containing ones
